Where a name gives a salt, the structure may show the parent alone.
Experiment: RP, Thermo Scientific Hypersil GOLD, 1.9 µm, 40 °C, 0.4 mL/min; A: water + 0.1% formic acid, pH 3; B: acetonitrile + 0.1% formic acid, pH 3; gradient (min/%B) 0/0 1/0 11/100 13/100 14/0 16/0
Conditions: stereoisomer not certain

LC retention time | Structure (SMILES)
0.68 min | CCCCCCCCCCCCCCCCCCC(=O)O [nonadecanoic acid]
0.83 min | CC(=O)NCC(=O)O [N-ACETYLGLYCINE]
2.66 min | O=C(O)C(O)c1cccc(O)c1 (stereo not drawn) [3-Hydroxymandelic acid]
0.74 min | CNCC(O)c1ccc(O)c(O)c1 (stereo not drawn) [EPINEPHRINE]
6.54 min | O=C1CCCCO1 [5-VALEROLACTONE]
0.67 min | NC(N)=NC(CC(=O)O)C(=O)O (stereo not drawn) [GUANIDINOSUCCINATE]
6.21 min | Oc1ccccc1 [PHENOL]
0.7 min | OCC1OCC(O)C(O)C1O [1-5-Anhydro-D-sorbitol]
6.31 min | NC(Cc1cc(I)c(Oc2ccc(O)cc2)c(I)c1)C(=O)O [3-5-DIIODO-L-THYRONINE]
0.55 min | CC(O)(CCO)CC(=O)[O-] (stereo not drawn) [MEVALONATE]
4.45 min | O=C(O)c1cc(=O)c2cccc(O)c2[nH]1 [XANTHURENATE]
0.96 min | O=c1[nH]c(=O)c2nccnc2[nH]1 [2-4-DIHYDROXYPTERIDINE]
1.29 min | O=C(O)c1ccnc2ccccc12 [4-QUINOLINECARBOXYLIC ACID]
5.12 min | O=C(O)c1c(O)cccc1O [2-6-Dihydroxybenzoic acid]
0.82 min | CCCC(N)C(=O)O (stereo not drawn) [NORVALINE]
0.83 min | NC(C(=O)O)c1ccccc1 (stereo not drawn) [2-Phenylglycine]
1.36 min | O=C(O)CC(CC(=O)O)C(=O)O [Tricarballylic acid]
0.81 min | Nc1nc2c(ncn2C2OC(COP(=O)(O)O)C(O)C2O)c(=O)[nH]1 (stereo not drawn) [GUANOSINE MONOPHOSPHATE]
4.54 min | Nc1nc2c(c(=O)[nH]1)N=C(CNc1ccc(C(=O)NC(CCC(=O)O)C(=O)O)cc1)CN2 (stereo not drawn) [DIHYDROFOLATE]
7.47 min | CC12CCC(=O)C=C1CCC1C2C(O)CC2(C)C(C(=O)CO)CCC12 (stereo not drawn) [CORTICOSTERONE]
0.82 min | Nc1ncnc2c1ncn2C1OC(CO)C(OP(=O)(O)O)C1O (stereo not drawn) [Adenosine 3'-monophosphate free acid]
0.82 min | O=c1[nH]c(=O)c2[nH]cnc2[nH]1 [XANTHINE]
0.67 min | CC(CN)C(=O)O (stereo not drawn) [AMINOISOBUTANOATE]

LC retention time | Structure (SMILES)
0.82 min | O=c1[nH]cc(CO)c(=O)[nH]1 [5-HYDROXYMETHYLURACIL]
0.82 min | O=c1ccn(C2OC(CO)C(O)C2O)c(=O)[nH]1 (stereo not drawn) [URIDINE]
5.05 min | Cc1cc2nc[nH]c2cc1C [5-6 DIMETHYLBENZIMIDAZOLE]
6.1 min | CC(=O)c1ccc(O)cc1O [2'-4'-DIHYDROXYACETOPHENONE]
0.77 min | O=C([O-])c1cc(=O)[nH]c(=O)[nH]1 [OROTATE]
4.77 min | O=S(=O)(O)Oc1c[nH]c2ccccc12 [INDOXYL SULFATE]
4.86 min | CC(=O)NCCc1c[nH]c2ccc(O)cc12 [N-ACETYLSEROTONIN]
7.67 min | CC(=O)OCC(=O)C1(O)CCC2C3CCC4=CC(=O)CCC4(C)C3C(O)CC21C (stereo not drawn) [CORTISOL 21-ACETATE]
0.64 min | NCC(=O)CCC(=O)O [5-AMINOLEVULINATE]
5.58 min | O=C(O)CCCCCCC(=O)O [SUBERATE]
0.84 min | NC(N)=NCCCC(=O)O [4-GUANIDINOBUTANOATE]
0.74 min | Nc1ncnc2nc[nH]c12 [ADENINE]
7.53 min | O=C(O)CCCCC1CCSS1 (racemic)
9.28 min | CC(CCC(=O)O)C1CCC2C3CCC4CC(O)CCC4(C)C3CC(O)C12C (stereo not drawn) [deoxycholic acid]
0.83 min | CN1C(=O)CCC1c1cccnc1 (stereo not drawn) [Cotinine]
0.78 min | CC(=O)NC(CO)C(=O)O (stereo not drawn) [N-ACETYLSERINE]
1.14 min | [NH3+]C(C(=O)[O-])C(O)c1ccccc1 (racemic) [L-Threo-3-Phenylserine (DL-3-Phenylserine)]
0.66 min | O=C1OC(C(O)CO)C(O)C1O [L-GULONOLACTONE]
8.17 min | C#CC1(O)CCC2C3CCc4cc(O)ccc4C3CCC21C (racemic)
9.23 min | CC1=C(/C=C/C(C)=C/C=C/C(C)=C/C=C/C=C(C)/C=C/C=C(C)/C=C/C2=C(C)CCCC2(C)C)C(C)(C)CCC1 [BETA-CAROTENE]
0.65 min | NC(=O)NCCCC(N)C(=O)O (stereo not drawn) [CITRULLINE]
1.24 min | CC(=O)NC(C)C(=O)O (stereo not drawn) [N-ACETYLALANINE]
1.77 min | Nc1ccc(C(=O)NCC(=O)O)cc1 [Aminohippuric acid]

LC retention time | Structure (SMILES)
6.09 min | COc1ccc2[nH]cc(CCNC(C)=O)c2c1 [MELATONIN]
6.99 min | NC(Cc1cc(I)c(Oc2ccc(O)c(I)c2)c(I)c1)C(=O)O (stereo not drawn) [LIOTHYRONINE]
4.72 min | Oc1ccc2[nH]ccc2c1 [5-Hydroxyindole]
0.67 min | NC(CS(=O)O)C(=O)O (stereo not drawn) [3-SULFINOALANINE]
0.82 min | NC(Cc1ccc(O)c(O)c1)C(=O)O [3-4-DIHYDROXY-L-PHENYLALANINE]
4.67 min | O=C(O)c1cc(=O)c2ccccc2[nH]1 [Kynurenic acid]
0.92 min | C[Se]CCC(N)C(=O)O (stereo not drawn) [SELENOMETHIONINE]
4.34 min | O=CCc1c[nH]c2ccccc12 [INDOLEACETALDEHYDE]
5.37 min | NC(=O)Cc1c[nH]c2ccccc12 [INDOLE-3-ACETAMIDE]
5.67 min | COc1cc(C=CC(=O)O)ccc1O [FERULATE]
0.83 min | Nc1ncnc2c1ncn2C1OC(CO)C2OP(=O)(O)OC21 (stereo not drawn) [ADENOSINE 2'-3'-CYCLIC PHOSPHATE]
3.68 min | Cc1cn(C2CC(O)C(CO)O2)c(=O)[nH]c1=O (stereo not drawn) [THYMIDINE]
0.78 min | CC(=O)C(=O)O [pyruvic acid]
0.62 min | NCCC(=O)O [BETA-ALANINE]
0.8 min | Cn1cnc(=N)c2[nH]cnc21 [3-METHYLADENINE]
6.02 min | O=C(C=Cc1ccc(O)c(O)c1)OC(Cc1ccc(O)c(O)c1)C(=O)O (stereo not drawn) [ROSMARINATE]
0.81 min | Nc1ncccc1C(=O)O [2-Aminopyridine-3-carboxylic acid]
6.73 min | CC12CCC(=O)C=C1CCC1C2C(O)CC2(C)C1CCC2(O)C(=O)CO (stereo not drawn) [CORTISOL]
1.05 min | O=C(O)CCCC(=O)C(=O)O [2-OXOADIPATE]
5.04 min | O=C(O)c1cccc(O)c1 [3-HYDROXYBENZOATE]
5.04 min | CC(C)(CC(=O)O)CC(=O)O [3-3-Dimethylglutaric acid]
6.55 min | O=c1c(O)c(-c2ccc(O)c(O)c2)oc2cc(O)cc(O)c12 [quercetine dihydrate]

Structure (SMILES) | LC retention time
NCC[Se][Se]CCN [SELENOCYSTAMINE] | 0.56 min
NCC(O)c1ccc(O)cc1 (stereo not drawn) [P-OCTOPAMINE] | 0.71 min
O=C(O)c1ccc(=O)[nH]c1 [6-HYDROXYNICOTINATE] | 1.5 min
CC1NCCc2cc(O)c(O)cc21 (stereo not drawn) [SALSOLINOL] | 0.82 min
NCCP(=O)(O)O [(2-AMINOETHYL)PHOSPHONATE] | 0.63 min

— the RepoRT retention time repository
